Assay results published in PubChem BioAssay AID1918939 (Molecular Pharmacology Branch, DTP, NCI, 2023).
Several values for one entry are separate records, joined by “and”; a condition that tells them apart may be missing. Equal values may be shown once.

Test system: 653999-131-R-J2-PDC complex spheroid viability
Assay: Anticancer human tumor 653999-131-R-J2-PDC patient-derived lung adenocarcinoma cell line growth inhibition
Conditions: for viability, T/C: stronger effect = lower value
Procedure, shortened: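 Multicellular complex spheroids of tumor cells with human endothelial cells (HUVEC) and mesenchymal stem cells; the LSD1 inhibitor iadademstat was combined with standard-of-care or investigational agents. Top concentration at or near clinical Cmax, half-log dilutions; final DMSO ≤0.25%.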

[1] = curve of first compound, second compound 0.1 µM
[2] = curve of first compound, second compound 0.316 µM
[3] = curve of first compound, second compound 1 µM
[4] = curve of first compound, second compound 3.16 µM
[5] = curve of first compound, second compound 10 µM
[6] = second compound 0.1 µM, first compound 0.00949 µM
[7] = second compound 0.1 µM, first compound 0.03 µM
[8] = second compound 0.1 µM, first compound 0.0949 µM
[9] = second compound 0.1 µM, first compound 0.3 µM
[10] = second compound 0.316 µM, first compound 0.00949 µM
[11] = second compound 0.316 µM, first compound 0.03 µM
[12] = second compound 0.316 µM, first compound 0.0949 µM
[13] = second compound 0.316 µM, first compound 0.3 µM
[14] = second compound 1 µM, first compound 0.00949 µM
[15] = second compound 1 µM, first compound 0.03 µM
[16] = second compound 1 µM, first compound 0.0949 µM
[17] = second compound 1 µM, first compound 0.3 µM
[18] = second compound 3.16 µM, first compound 0.00949 µM
[19] = second compound 3.16 µM, first compound 0.03 µM
[20] = second compound 3.16 µM, first compound 0.0949 µM
[21] = second compound 3.16 µM, first compound 0.3 µM
[22] = second compound 10 µM, first compound 0.00949 µM
[23] = second compound 10 µM, first compound 0.03 µM
[24] = second compound 10 µM, first compound 0.0949 µM
[25] = second compound 10 µM, first compound 0.3 µM
[26] = second compound 0.1 µM, first compound 0.0316 µM
[27] = second compound 0.1 µM, first compound 0.1 µM
[28] = second compound 0.1 µM, first compound 0.316 µM
[29] = second compound 0.1 µM, first compound 1 µM
[30] = second compound 0.316 µM, first compound 0.0316 µM
[31] = second compound 0.316 µM, first compound 0.1 µM
[32] = second compound 0.316 µM, first compound 0.316 µM
[33] = second compound 0.316 µM, first compound 1 µM
[34] = second compound 1 µM, first compound 0.0316 µM
[35] = second compound 1 µM, first compound 0.1 µM
[36] = second compound 1 µM, first compound 0.316 µM
[37] = second compound 1 µM, first compound 1 µM
[38] = second compound 3.16 µM, first compound 0.0316 µM
[39] = second compound 3.16 µM, first compound 0.1 µM
[40] = second compound 3.16 µM, first compound 0.316 µM
[41] = second compound 3.16 µM, first compound 1 µM
[42] = second compound 10 µM, first compound 0.0316 µM
[43] = second compound 10 µM, first compound 0.1 µM
[44] = second compound 10 µM, first compound 0.316 µM
[45] = second compound 10 µM, first compound 1 µM
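Further: spheroids exposed to agents for seven days before readout.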

With `Nc1ccn(C2OC(CO)C(O)C2(F)F)c(=O)n1` (centres undefined) + NC1CCC(NC2CC2c2ccccc2)CC1 the IC50 [1] was 8.36 nM, the IC50 [2] was 2.64 nM and the IC50 [3] was 7.34 nM. It also gave an IC50 [4] of 6.64 nM, an IC50 [5] of 23 nM and a viability, T/C (second compound 0.1 µM, first compound 0.000949 µM) of 64.2%. It also gave a viability, T/C (second compound 0.1 µM, first compound 0.003 µM) of 62.6%, a viability, T/C [6] of 46.7% and a viability, T/C [7] of 38.7%. The viability, T/C [8] was 34.5%, the viability, T/C [9] was 30.1% and the viability, T/C (second compound 0.316 µM, first compound 0.000949 µM) was 58.4%. It also gave a viability, T/C (second compound 0.316 µM, first compound 0.003 µM) of 45.5%, a viability, T/C [10] of 47.8% and a viability, T/C [11] of 30.8%. The viability, T/C [12] was 30.6%, the viability, T/C [13] was 27.3% and the viability, T/C (second compound 1 µM, first compound 0.000949 µM) was 56%. The viability, T/C (second compound 1 µM, first compound 0.003 µM) was 55.8%, the viability, T/C [14] was 48.4% and the viability, T/C [15] was 36.6%. The viability, T/C [16] was 34.8%, the viability, T/C [17] was 31.3% and the viability, T/C (second compound 3.16 µM, first compound 0.000949 µM) was 70.5%. It also gave a viability, T/C (second compound 3.16 µM, first compound 0.003 µM) of 52.2%, a viability, T/C [18] of 47.5% and a viability, T/C [19] of 45%. For the same molecule, the viability, T/C [20] was 34.8%, the viability, T/C [21] was 33.1% and the viability, T/C (second compound 10 µM, first compound 0.000949 µM) was 65.2%. It also gave a viability, T/C (second compound 10 µM, first compound 0.003 µM) of 64.7%, a viability, T/C [22] of 59% and a viability, T/C [23] of 47.8%. The viability, T/C [24] was 40.4% and the viability, T/C [25] was 43.8%.

`CC1COCCN1c1cc(C2(S(C)(=N)=O)CC2)nc(-c2ccnc3[nH]ccc23)n1` (centres undefined) + NC1CCC(NC2CC2c2ccccc2)CC1 showed an IC50 [1] of 736 nM, an IC50 [2] of 832 nM and an IC50 [3] of 840 nM. The IC50 [4] was 674 nM, the IC50 [5] was 698 nM and the viability, T/C [26] was 104%. The viability, T/C [27] was 81.3%, the viability, T/C [28] was 63.7% and the viability, T/C [29] was 46.4%. For the same molecule, the viability, T/C (second compound 0.1 µM, first compound 3.16 µM) was 32.8%, the viability, T/C (second compound 0.1 µM, first compound 10 µM) was 34.1% and the viability, T/C [30] was 94.1%. The viability, T/C [31] was 80.1%, the viability, T/C [32] was 73.8% and the viability, T/C [33] was 45.5%. It also gave a viability, T/C (second compound 0.316 µM, first compound 3.16 µM) of 30%, a viability, T/C (second compound 0.316 µM, first compound 10 µM) of 31% and a viability, T/C [34] of 102%. It also gave a viability, T/C [35] of 81%, a viability, T/C [36] of 67.4% and a viability, T/C [37] of 46.3%. For the same molecule, the viability, T/C (second compound 1 µM, first compound 3.16 µM) was 34.1%, the viability, T/C (second compound 1 µM, first compound 10 µM) was 28.2% and the viability, T/C [38] was 101%. The viability, T/C [39] was 89.4%, the viability, T/C [40] was 68.9% and the viability, T/C [41] was 39.1%. It also gave a viability, T/C (second compound 3.16 µM, first compound 3.16 µM) of 33.6%, a viability, T/C (second compound 3.16 µM, first compound 10 µM) of 32.3% and a viability, T/C [42] of 103%. It also gave a viability, T/C [43] of 66.4%, a viability, T/C [44] of 72.5% and a viability, T/C [45] of 43.8%. It also gave a viability, T/C (second compound 10 µM, first compound 3.16 µM) of 30% and a viability, T/C (second compound 10 µM, first compound 10 µM) of 27.4%.

`CC1COCCN1c1cc(C2(S(C)(=N)=O)CC2)nc(-c2ccnc3[nH]ccc23)n1` (centres undefined) was tested, and the viability, T/C (compound 0.0316 µM) was 107% and 106%, the viability, T/C (compound 0.1 µM) was 85.1% and 117% and the viability, T/C (compound 0.316 µM) was 79.9% and 107%. The viability, T/C (compound 1 µM) was 57.8% and 84.8%, the viability, T/C (compound 3.16 µM) was 38.3% and 58.8% and the viability, T/C (compound 10 µM) was 37.8% and 56.7%. The IC50 (curve of compound) was 1810 nM and > 10000 nM.

In the case of `O=C(C=Cc1cccc(S(=O)(=O)Nc2ccccc2)c1)NO` + NC1CC1c1ccc(-c2cccc(O)c2)cc1, the IC50 [1] is reported as greater than 3000 nM, the IC50 [2] is reported as 296 nM and the IC50 [3] is reported as 293 nM. For the same molecule, the IC50 [4] was 294 nM, the IC50 [5] was 265 nM and the viability, T/C [6] was 99.8%. It also gave a viability, T/C [7] of 109%, a viability, T/C [8] of 88.8% and a viability, T/C [9] of 48.7%. The viability, T/C (second compound 0.1 µM, first compound 0.949 µM) was 8.83%, the viability, T/C (second compound 0.1 µM, first compound 3 µM) was 99.3% and the viability, T/C [10] was 92.8%. It also gave a viability, T/C [11] of 99%, a viability, T/C [12] of 87.9% and a viability, T/C [13] of 45.2%. The viability, T/C (second compound 0.316 µM, first compound 0.949 µM) was 9.89%, the viability, T/C (second compound 0.316 µM, first compound 3 µM) was 93.6% and the viability, T/C [14] was 78.8%. For the same molecule, the viability, T/C [15] was 94.4%, the viability, T/C [16] was 92.4% and the viability, T/C [17] was 49.1%. It also gave a viability, T/C (second compound 1 µM, first compound 0.949 µM) of 8.18%, a viability, T/C (second compound 1 µM, first compound 3 µM) of 89% and a viability, T/C [18] of 88.2%. For the same molecule, the viability, T/C [19] was 101%, the viability, T/C [20] was 89.8% and the viability, T/C [21] was 45.8%. The viability, T/C (second compound 3.16 µM, first compound 0.949 µM) was 7.35%, the viability, T/C (second compound 3.16 µM, first compound 3 µM) was 94.9% and the viability, T/C [22] was 83.5%. It also gave a viability, T/C [23] of 88.6%, a viability, T/C [24] of 83.3% and a viability, T/C [25] of 46%. It also gave a viability, T/C (second compound 10 µM, first compound 0.949 µM) of 9.36% and a viability, T/C (second compound 10 µM, first compound 3 µM) of 82.4%.

`Nc1ncn(C2CC(O)C(CO)O2)c(=O)n1` (centres undefined) + NC1CCC(NC2CC2c2ccccc2)CC1 showed an IC50 [1] greater than 1000 nM, an IC50 [2] greater than 1000 nM and an IC50 [3] greater than 1000 nM. It also gave an IC50 [4] greater than 1000 nM, an IC50 [5] greater than 1000 nM and a viability, T/C (second compound 0.1 µM, first compound 0.00316 µM) of 102%. The viability, T/C (second compound 0.1 µM, first compound 0.01 µM) was 89.1%, the viability, T/C [26] was 91.4% and the viability, T/C [27] was 69%. It also gave a viability, T/C [28] of 68.9%, a viability, T/C [29] of 70.7% and a viability, T/C (second compound 0.316 µM, first compound 0.00316 µM) of 93.3%. It also gave a viability, T/C (second compound 0.316 µM, first compound 0.01 µM) of 105%, a viability, T/C [30] of 87.5% and a viability, T/C [31] of 82.7%. For the same molecule, the viability, T/C [32] was 75.8%, the viability, T/C [33] was 64.4% and the viability, T/C (second compound 1 µM, first compound 0.00316 µM) was 92.1%. The viability, T/C (second compound 1 µM, first compound 0.01 µM) was 86.5%, the viability, T/C [34] was 86.9% and the viability, T/C [35] was 75.1%. For the same molecule, the viability, T/C [36] was 81.8%, the viability, T/C [37] was 62% and the viability, T/C (second compound 3.16 µM, first compound 0.00316 µM) was 87.1%. It also gave a viability, T/C (second compound 3.16 µM, first compound 0.01 µM) of 87.6%, a viability, T/C [38] of 94.2% and a viability, T/C [39] of 81.4%. For the same molecule, the viability, T/C [40] was 77.4%, the viability, T/C [41] was 78% and the viability, T/C (second compound 10 µM, first compound 0.00316 µM) was 93.5%. It also gave a viability, T/C (second compound 10 µM, first compound 0.01 µM) of 99.3%, a viability, T/C [42] of 85.8% and a viability, T/C [43] of 86.6%. For the same molecule, the viability, T/C [44] was 73.3% and the viability, T/C [45] was 82.5%.

With `COc1cc(Nc2ncc3c(n2)-c2ccc(Cl)cc2C(c2c(F)cccc2OC)=NC3)ccc1C(=O)O` the viability, T/C (compound 0.00316 µM) was 96.9% and 78.1%, the viability, T/C (compound 0.01 µM) was 90.6% and 74% and the viability, T/C (compound 0.0316 µM) was 68.8% and 68.2%. The viability, T/C (compound 0.1 µM) was 70% and 73.6%, the viability, T/C (compound 0.316 µM) was 73.4% and 78% and the viability, T/C (compound 1 µM) was 68.2% and 64.2%. It also gave an IC50 (curve of compound) greater than 1000 nM.
